Source: patent US8604202B2, “Thienopyridone derivatives as AMP-activated protein kinase (AMPK) activators” (Merck Patent GmbH, priority 2008, dated 2013)

Key:
ob/ob and db/db mice = details: 8 day administration; cited from earlier work
[1] = target: T1, AMPK protein (recombinant α1β1γ2) (Homo sapiens, UniProt Q13131+Q9Y478); assay: AMPK enzymatic activity (Delfia, AMARA peptide); assay type: biochemical; details: compound 30 μM vs AMP 30 μM; 125 μM ATP; 30 min room temperature; ratio 90% or higher = direct activator
T1 construct: made in house; host or cells: E. coli
T1 sequence (Q13131 whole entry): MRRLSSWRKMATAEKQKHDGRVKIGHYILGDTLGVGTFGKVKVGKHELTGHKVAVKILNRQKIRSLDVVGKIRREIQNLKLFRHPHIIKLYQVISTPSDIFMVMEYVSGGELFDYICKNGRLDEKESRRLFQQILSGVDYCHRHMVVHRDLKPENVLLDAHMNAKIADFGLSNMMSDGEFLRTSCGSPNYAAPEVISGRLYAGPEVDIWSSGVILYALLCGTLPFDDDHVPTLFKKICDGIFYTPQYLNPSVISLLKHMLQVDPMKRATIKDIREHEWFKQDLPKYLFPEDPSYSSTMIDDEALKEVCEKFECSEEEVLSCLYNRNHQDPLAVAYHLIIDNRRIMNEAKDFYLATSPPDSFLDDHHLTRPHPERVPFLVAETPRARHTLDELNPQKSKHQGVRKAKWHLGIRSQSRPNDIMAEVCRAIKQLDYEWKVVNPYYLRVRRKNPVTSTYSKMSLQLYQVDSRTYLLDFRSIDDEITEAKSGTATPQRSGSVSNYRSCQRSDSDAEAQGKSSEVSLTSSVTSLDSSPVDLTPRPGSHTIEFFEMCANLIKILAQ
T1 sequence (Q9Y478 whole entry): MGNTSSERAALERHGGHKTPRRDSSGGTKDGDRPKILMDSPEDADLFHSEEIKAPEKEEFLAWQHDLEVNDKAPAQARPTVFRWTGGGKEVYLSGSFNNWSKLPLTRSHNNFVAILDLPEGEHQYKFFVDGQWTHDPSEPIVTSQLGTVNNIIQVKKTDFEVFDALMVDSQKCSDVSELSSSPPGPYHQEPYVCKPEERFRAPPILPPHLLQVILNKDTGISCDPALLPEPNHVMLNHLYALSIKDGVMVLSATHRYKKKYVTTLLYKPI
T1 sequence (Q9UGJ0 whole entry partner): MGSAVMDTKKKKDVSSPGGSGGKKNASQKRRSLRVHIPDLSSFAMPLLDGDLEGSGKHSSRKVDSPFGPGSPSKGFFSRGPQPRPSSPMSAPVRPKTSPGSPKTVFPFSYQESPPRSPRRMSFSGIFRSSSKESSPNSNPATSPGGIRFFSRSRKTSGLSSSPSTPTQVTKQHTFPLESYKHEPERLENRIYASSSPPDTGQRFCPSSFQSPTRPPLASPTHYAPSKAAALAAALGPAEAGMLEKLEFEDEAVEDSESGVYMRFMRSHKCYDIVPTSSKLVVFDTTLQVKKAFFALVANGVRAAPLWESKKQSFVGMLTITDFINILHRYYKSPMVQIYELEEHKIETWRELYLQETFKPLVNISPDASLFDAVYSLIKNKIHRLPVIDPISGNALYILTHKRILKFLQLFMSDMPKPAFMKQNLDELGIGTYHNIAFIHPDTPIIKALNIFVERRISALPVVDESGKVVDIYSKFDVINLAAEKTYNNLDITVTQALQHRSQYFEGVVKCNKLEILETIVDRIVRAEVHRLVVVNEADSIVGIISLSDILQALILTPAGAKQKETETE
Experimental: The following biological test allows the determination of the efficacy of such compounds of formula (I) onto AMPK protein (recombinant α1β1γ2).
Human recombinant AMPK enzyme was expressed in E. Coli and was reactivated in vitro by LKB1 prior to enzyme activity determination.
AMPK enzyme activities were assayed by using A Delfia technology. AMPK enzyme activities were carried out in microtiter plates (50 mM Hepes buffer, pH 7.4 with 125 μM ATP respectively) in the presence of a synthetic peptide substrate (AMARAASAAALARRR, the “AMARA” peptide) and activators in serial dilutions. Reactions were initiated by the addition of AMPK (50-100 ng). Following mixing, the plates were incubated for 30 min at room temperature. Enzyme activity was assayed by using an anti-phosphoserine antibody to measure the quantity of phosphate incorporated into the AMARAA.
Ratio between the % of control (basal activity) of compound of formula (I) at 30 μM and the % of control (basal activity) of AMP (natural substrate) at 30 μM. Compounds of formula (I) in the table II are considered as direct activator of AMPK if the ratio is 90% or higher.

H-2 Kb cells = assay: Glucose uptake in H-2 Kb cells (in vitro cellular test); assay type: cell-based, mouse; details: Mus musculus; differentiated H-2 Kb muscle cells, 4 hours incubation, 2-deoxy-D-[3H]glucose 10 min; read-out: activity: Concentration of compound for a glucose uptake equal or higher to glucose uptake induced by insulin (170 nM)
Experimental: The following cellular test allows the determination of the effect of AMPK activators such as compounds of formula (I) onto glucose uptake in a muscle cellular model.
H-2 Kb cells derived from heterozygous H-2 Kb tsA58 transgenic mouse were grown in 24-well in plates coated with matrigel and were cultured at 33° C. for 4 days under permissive conditions, as described previously by Fryer et al. (Diabetes 49 (12): 1978, 2000).
For differentiation in muscle, cells were switched to non-permissive culture conditions (37° C. in the absence of interferon-γ). After 3 days, cells were incubated for 4 hours in DMEM 1 g/l glucose culture medium containing different concentrations of the tested molecules. Then glucose uptake was measured by incubating the cells for 10 min with radiolabelled 2-deoxy-D-[1, 2 ^3H] glucose. Glucose uptake was terminated by rapidly washing the plates 2 times with ice-cold NaCl 0.9%. The cells were then solubilized in 0.1N NaOH for 30 min. Radioactivity was determined by liquid scintillation counting.
Activity table III: Concentration of compound (1) for a glucose uptake equal or higher to glucose uptake induced by insulin (170 nM)

Structure (SMILES) | reduces blood glucose (ob/ob and db/db mice) | activity: Ratio between the % of control (basal activity) of compound of formula (I) at 30 μM and the % of control (basal activity) of AMP at 30 μM [1] | EC (glucose uptake equal or higher to insulin 170 nM) (H-2 Kb cells)
NC(=O)c1ncn([C@@H]2O[C@H](CO)[C@@H](O)[C@H]2O)c1N [AICAR, 5-aminoimidazole-4-carboxamide riboside] | 35% | – | –
Cc1ccccc1-c1ccc(-c2csc3[nH]c(=O)c(-c4cccnc4)c(O)c23)cc1 [Compound 35, 4-hydroxy-3-(2′-methylbiphenyl-4-yl)-5-pyridin-3-yl-6,7-dihydro-thieno[2,3-b]pyridin-6-one] | – | 161% | > 10 µM
O=c1[nH]c2scc(-c3ccc(-c4ccccc4F)cc3)c2c(O)c1-c1ccccc1 [Compound 6, 3-(2′-fluorobiphenyl-4-yl)-4-hydroxy-5-phenyl-6,7-dihydro-thieno[2,3-b]pyridin-6-one] | – | 191% | > 10 µM
CS(=O)(=O)c1ccc(-c2ccc(-c3csc4[nH]c(=O)c(-c5ccccc5)c(O)c34)cc2)cc1 [Compound 20, 4-hydroxy-3-(4′-methylsulfonylbiphenyl-4-yl)-5-phenyl-6,7-dihydro-thieno[2,3-b]pyridin-6-one] | – | 206% | > 10 µM
